Drawing on article PMC5792594, “Engineering yeast for the production of breviscapine by genomic analysis and synthetic biology approaches” (Nature Communications, 2018), this text covers Km for two compounds.

Molecules are shown by their SMILES.

This test has as its system T1, EbF7GAT.
T1 construct: gene F7GAT; tag removal not mentioned
Kind of test: HPLC of glucuronide product, initial-rate kinetics. The format is biochemical, Erigeron breviscapus. The following applies: UDP-glucuronic acid as donor (1 mM in standard assay), 50 mM Tris-HCl pH 7.5, 37 °C.

As usually defined, the Km is the concentration of substrate that gives half-maximal velocity. Consider `O=c1cc(-c2ccc(O)cc2)oc2cc(O)cc(O)c12` [apigenin], for which the Km (10 min, 0.1-20 µM apigenin) is 9.24 µM.
Take `O=c1cc(-c2ccc(O)cc2)oc2cc(O)c(O)c(O)c12` [scutellarein]: the Km (5-300 µM scutellarein) amounted to 70.2 µM.
